Test results from ChEMBL document CHEMBL1124648, “Synthesis and biological activity of photoactive derivatives of erythromycin” (J Med Chem, 1989).

Assays:
Nucleic Acid [1] = settings: at 1 µM
Description: Inhibition of N-acetylphenylalanine-tRNA peptide bond formation by puromycin reaction at 10E-6 M

Nucleic Acid [2] = settings: at 10 µM
Description: Inhibition of N-acetylphenylalanine-tRNA peptide bond formation by puromycin reaction at 10E-5 M

Nucleic Acid [3] = settings: at 10 µM; remark: listed apart in the source
Description: Inhibition of N-acetylphenylalanine-tRNA peptide bond formation by fragment reaction at 10e-5 M

| Molecule | inhibition (Nucleic Acid [1]) | inhibition (Nucleic Acid [2]) | inhibition (Nucleic Acid [3]) |
| --- | --- | --- | --- |
| CC[C@H]1OC(=O)[C@H](C)[C@@H](O[C@H]2C[C@@](C)(OC)[C@@H](O)[C@H](C)O2)[C@H](C)[C@@H](O[C@@H]2O[C@H](C)C[C@H](N(C)C)[C@H]2O)[C@@](C)(O)C[C@@H](C)[C@H](NC(=O)CCCOc2ccc([N+](=O)[O-])cc2OC)[C@H](C)[C@@H](O)[C@]1(C)O | 13% | 25% | 11% |
| CC[C@H]1OC(=O)[C@H](C)[C@@H](O[C@H]2C[C@@](C)(OC)[C@@H](O)[C@H](C)O2)[C@H](C)[C@@H](O[C@@H]2O[C@H](C)C[C@H](N(C)C)[C@H]2O)[C@@](C)(O)C[C@@H](C)[C@H](NC(=O)CNC(=O)CCCOc2ccc([N+](=O)[O-])cc2OC)[C@H](C)[C@@H](O)[C@]1(C)O | 18% | 30% | 24% |
| CC[C@H]1OC(=O)[C@H](C)[C@@H](O[C@H]2C[C@@](C)(OC)[C@@H](O)[C@H](C)O2)[C@H](C)[C@@H](O[C@@H]2O[C@H](C)C[C@H](N(C)C)[C@H]2O)[C@@](C)(O)C[C@@H](C)[C@H](NC(=O)COc2cc(N=[N+]=[N-])ccc2CO)[C@H](C)[C@@H](O)[C@]1(C)O | 15% | 23% | 0% |
| SPIRAMYCIN | 53% | 85% | 48% |
